US7078059B2, “Treatment of bone diseases” (Shire Holdings AG, priority 2000, dated 2006)

Assays:
[1] = system: mouse bone marrow derived osteoprogenitor cells; assay: In vitro osteoblast differentiation assay (cellular alkaline phosphatase); type: cell-based; details: LA number = ng/ml lanthanum; lanthanum (III) ion = 100-15000 ng/ml; 17-estradiol 10^−10 M
From the text: We have established a culture model in which mouse bone marrow derived osteoprogenitor cells first proliferate and then differentiate to osteoblasts capable of forming mineralized bone nodules (Qu et al. 1998, Qu et al. 1999). We confirmed this by following the expression of several markers of the osteoblastic phenotype and by studying the morphology of cultures at light and electron microscopic level. […] Thus, this culture system fulfills requirements of an in vitro model useful for studying differentiation of osteoprogenitor cells into bone synthesizing osteoblasts. […] Animals were killed by cervical dislocation. Both femora were removed and the soft tissues were detached aseptically. Metaphyses from both ends were cut off and bone marrow cells were collected by flushing the diaphysis with culture medium: phenol red-free-α-modified essential medium (α-MEM (Gibco BRL, Paisley, UK)). […] The cells were cultured for 6 days and half of the media […] days. […] Cells were washed with warm PBS and adherent cells were detached using trypsin-EDTA. […] The test substances were added at the beginning of the secondary culture without estrogen, and every time when the medium was changed. The number of osteoblasts formed was determined by measuring cellular alkaline phosphatase (ALP) activity in the culture. […] Louis, Mo., USA), and overnight freezing. ALP activity was determined colorimetrically using p-nitrophenylphosphate as substrate at pH 9.7 and determining the optical density at 405 nm. In parallel, protein contents of the wells were determined by the BIO-RAD protein assay, and the specific ALP activity is expressed as units/mg protein. […] Osteoblast differentiation was determined by measuring cellular alkaline phosphatase (ALP) activities and total protein amounts from cell lysates. The ALP activities were divided with the corresponding protein amounts to obtain specific activities of ALP. The results are shown as relative specific activities obtained by dividing each individual value with the mean value of the baseline group.

[2] = system: mature osteoblasts; assay: In vitro bone formation assay (calcium deposition into bone nodules); type: cell-based, mouse; details: LA number = ng/ml lanthanum; lanthanum (III) / lanthanum (III) ion = all concentrations tested, 100 to 15,000 ng/ml; 17-estradiol 10^−10M
Procedure: The activity of mature osteoblasts can be determined by quantifying their ability to form mineralized bone matrix. This is done by demineralizing the formed bone matrix, and determining the amount of calcium released. Thus, this culture system fulfills requirements of an in vitro model useful for studying the bone formation activity of mature osteoblasts. […] At the end of the culture, the amount of calcium deposited during the culture period was determined, and the amount of bone formation (calcium deposition) calculated. […] Extracts of 50 μl were complexed with 1 ml determined o-cresol-phthalein-complexon. The colorimetric reaction was determined at 570 nm in a spectrophotometer. Absolute calcium concentrations were determined by comparison with a calibrated standard provided by the vendor. In this study, the effect of lanthanum carbonate on bone formation was tested. […] The amount of bone formation was determined by measuring the amount of calcium deposited into bone nodules formed by mature osteoblasts. The results are shown as the amount of calcium released (mmol/L) from the bone nodules after HCl extraction. The baseline values are too low to show the results using relative amounts as was done in the other assays.

[3] = system: osteoclasts cultured on bone slices; assay: In vitro bone resorption assay (osteoclasts on bovine bone slices, CrossLaps); type: cell-based, rat; details: LA number = ng/ml lanthanum; lanthanum (III) ion = any of the concentrations tested (100-15000 ng/ml); bafilomycin Al 10 nM
From the text: The method of osteoclast culture on bone slices was originally described by Boyde et al. (1984) and by Chambers et al. (1984). For cell culture, we used a method slightly modified from the original methods (Lakkakorpi et al. 1989, Lakkakorpi and Väänänen, 1991). The rate of bone resorption in the cultures was originally determined by counting the number of resorption pits on each bone or dentine slice using a microscope with phase contrast objectives (Sundquist et al. 1990). Later, the pits were visualized using Wheat Germ Agglutinin lectin that specifically binds to the resorbed area in bone (Selander et al. 1994), making it possible to quantify the total resorbed area using a microscope and computer-assisted image analysis system (Laitala and Väänänen 1994, Hentunen et al. 1995). We used a commercially available method (CrossLaps for cultures, Osteometer Biotech, Herlev, Denmark) to detect the amount of collagen cross-links released into the culture medium as an index of the bone resorption rate (Bagger et al., 1999).
The study protocol uses a method where osteoclasts are cultured on bone slices and allowed to resorb bone. The system is ideal for determining the effect of drug candidates on the bone resorbing activity of osteoclasts. Drug candidates are added into the cell cultures at the beginning of the culture period, and the osteoclasts allowed to resorb bone for 3 days. The amount of bone resorbed during the culture period is determined and compared to the amount of bone resorbed in control cultures (those cultured in the absence of drug candidates).
Transverse 0.1 mm thick slices of cortical bone were cut from the diaphysis of fresh bovine femurs (Atria Slaughterhouse, Oulu, Finland) using a low-speed diamond saw, cleaned by ultrasonication in multiple changes of sterile distilled water, and stored at 4° C. before use. Long bones were removed from 1-day-old rat pups killed by decapitation. […] The resulting suspension of dispersed cells and bone fragments was agitated using a plastic pipette. Larger fragments were allowed to sediment for a few seconds and the supernatant was seeded onto the bone slices pre-wetted in the medium. After a settling period of 30 minutes at 37° C., the bone slices were washed by dipping in fresh medium, and then transferred to wells in 24-well culture dishes containing osteoclast culture medium. The bone slices were incubated in a humidified atmosphere of 95% air and 5% carbon dioxide at 37° C. for 72 hours.
After the culture period, the amount of bone resorption was determined by measuring the amount of collagen cross-links released into the culture medium using a commercial kit (CrossLaps for cultures, Osteometer Biotech) according to the manufacturer s instructions. The number of osteoclasts in each culture was determined by microscopic counting of the amount of TRAP-positive multinuclear cells, and the results are given as the number of collagen cross-links released per one osteoclast.
In the bone resorption assay, the amount of medium CrossLaps (nM) released into the culture medium was determined and the number of osteoclasts in the corresponding cultures calculated. The medium CrossLaps amounts were divided with the osteoclast numbers in the corresponding cultures, and the results are given on Table 1 as relative medium CrossLaps amounts per osteoclasts. The relative values were obtained by dividing each individual value with the mean value of the baseline group.

Row | Structure (SMILES) | Effect on osteoblast differentiation, in words [1] | Effect on bone formation activity of mature osteoblasts, in words [2] | Effect on bone resorption / bone resorbing activity of mature osteoclasts, in words [3]
1 | C[C@]12CC[C@@H]3c4ccc(O)cc4CC[C@H]3[C@@H]1CC[C@@H]2O [17-β estradiol, reference compound] | activated osteoblast differentiation significantly | activated bone formation significantly | 
2 | CO/C1=C\C(C)=C\[C@@H](C)[C@@H](O)[C@@H](C)C/C(C)=C/C=C/[C@H](OC)[C@@H]([C@@H](C)[C@@H](O)[C@H](C)[C@@]2(O)C[C@@H](O)[C@H](C)[C@@H](C(C)C)O2)OC1=O [Bafilomycin Al, reference compound] |  |  | completely inhibited bone resorption
